Legend:
Assay type in all cases: cell-based
MV4-11 cells = test: Anti-proliferation assay, MV4-11; conditions: Homo sapiens, MV4-11, 336 h, approximately 2 weeks, read-out: inhibition of MV4-11 cell proliferation
Procedure: Cell proliferation assays were carried out in a 96-well tissue culture plate at 2 × 10^4 cells/well for all cell lines except in 200 μL with a compound added as 1:1000 dilution of DMSO stocks in triplicate. Culture density was determined every 3–4 days using the countess automated cell counter, after which 2 × 10^4 live cells were reseeded in fresh media and compound. The cumulative cell count was achieved by back calculation.

[1] = Cell toxicity assay (CCK-8), HEK293T; conditions: human, HEK293T cells; 72 h (3-days) treatment, n = 3; read-out: CC50 HEK293T (Cellular IC50, 3-days incubation)
Procedure: (§1) Approximately 1 × 10^4 JURKAT, MOLM-13, MV4-11 and HEK293T cells in RPMI 1640 (no phenol red) (100 μL) were added to a 96-well plate and treated with DMSO or a compound at indicated concentrations for 72 h or 8 days. Cell viability was measured using the CCK-8 kit (Abcam, ab228554) according to the manufacturer’s instructions.

ENL = target: T1, ENL (Homo sapiens, UniProt Q03111); test: Cellular thermal shift assay (CETSA); conditions: MOLM-13 and MV4-11 cells, 10 μM, 3 and 6 h
T1 construct: CETSAs of ENL in MOLM-13 (top) and MV4-11 (bottom) cells; endogenous in cells; host or cells: MOLM-13 and MV4-11
T1 sequence (Q03111 1-559): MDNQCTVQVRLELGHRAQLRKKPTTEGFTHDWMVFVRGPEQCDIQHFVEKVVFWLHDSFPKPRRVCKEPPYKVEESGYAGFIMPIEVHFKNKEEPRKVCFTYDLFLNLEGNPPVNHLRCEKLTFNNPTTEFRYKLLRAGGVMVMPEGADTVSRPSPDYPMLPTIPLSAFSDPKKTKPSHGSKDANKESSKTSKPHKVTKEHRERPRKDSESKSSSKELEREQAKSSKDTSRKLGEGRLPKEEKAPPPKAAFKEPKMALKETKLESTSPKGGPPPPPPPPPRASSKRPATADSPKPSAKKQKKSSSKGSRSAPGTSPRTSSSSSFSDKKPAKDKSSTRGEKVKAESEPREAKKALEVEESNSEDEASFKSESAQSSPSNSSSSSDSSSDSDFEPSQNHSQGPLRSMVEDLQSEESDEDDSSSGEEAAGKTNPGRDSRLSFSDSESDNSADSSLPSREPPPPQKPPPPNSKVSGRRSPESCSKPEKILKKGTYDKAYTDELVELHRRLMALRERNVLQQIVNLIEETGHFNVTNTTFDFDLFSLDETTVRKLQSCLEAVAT
Procedure: MOLM-13 and MV4-11 were incubated with 10 μM of inhibitor 13 for 3 and 6 h, respectively. The cells were then collected and washed with PBS 3 times. The cell pellets were resuspended in PBS-containing protease inhibitors and aliquoted into PCR microtubes (approximately 3 million cells in 54 μL). Cells were heated at indicated temperatures for 3 min in a thermal cycler (Bio-Rad) and then incubated at room temperature for 2 min. A total of 6 μL of 10× cell lysis buffer (8% NP-40, 50% glycerol, and 10 mM dithiothreitol) was added to each sample before subjecting the sample to three freeze–thaw cycles by liquid nitrogen and 37 °C water bath incubations to lyse the cells. The cell lysates were centrifuged at 13,000 rpm at 4 °C for 10 min, and the supernatants were analyzed using SDS-PAGE and Western blotting.

NLuc-ENL YEATS = target: T2, NLuc-ENL YEATS (Homo sapiens, UniProt Q03111); test: ENL-NanoBRET inhibitor competitive assay; conditions: HEK293T cells stably expressing NLuc-ENL YEATS, 1 μM Tracer 2, 2 h; mean ± SD, n = 3
T2 construct: DNA encoding the ENL YEATS domain (aa 1–148) was cloned into an NLuc containing plasmid; expressed in transfected cells
T2 sequence (Q03111 1-148): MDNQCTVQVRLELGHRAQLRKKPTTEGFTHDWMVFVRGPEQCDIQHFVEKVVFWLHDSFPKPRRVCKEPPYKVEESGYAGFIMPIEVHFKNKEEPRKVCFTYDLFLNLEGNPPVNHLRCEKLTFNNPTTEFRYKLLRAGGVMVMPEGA
Procedure: Approximately 1.8 × 10^4 HEK293T cells (100 μL) stably expressing NLuc-ENL YEATS were seeded into a white nonbinding 96-well assay plate and incubated overnight at 37 °C in a humidified 5% CO2 atmosphere. After removal of the medium, the cells were added with a tracer (with or without excess of unlabeled compound) in the Opti-MEM with 0.1% DMSO. After incubation at 37 °C for 2 h the assay plate was equilibrated at room temperature for 15 min. For BRET detection, the NanoGlo Substrate and the extracellular NanoLuc inhibitor (Promega, N2160) were diluted with Opti-MEM as described in protocol to afford detection solution. 50 μL of the detection solution was added per well and the plate was incubated for 3 min at room temperature. The donor emission was measured at 450 nm and the acceptor emission at 610 nm using a BioTek SYNERGY neo2 multimode reader. The BRET ratio was calculated according to the following formula: BRET ratio = [(acceptorsample/donorsample) – (acceptorno-tracer control/donorno-tracer control)] × 1000.
Sample procedures were followed for cell seeding as described in the previously described tracer affinity assay. After removal of the medium, the cells were added with a tracer in the medium (1.1 μM, 100 μL) and varied concentrations of a test compound in 0.1% DMSO (10 μL). The plate was thoroughly mixed on an orbital shaker for 15 s at 900 rpm. Then the cells were incubated at 37 °C, 5% CO2 for 2 h for BRET ratio detection as described previously.

[2] = Cell toxicity assay (CCK-8), MOLM-13; conditions: human, MOLM-13 cells, 8 day treatment, n = 3; read-out: CC50 MOLM-13 (Cellular IC50, 8-days incubation)
Procedure: as §1

SMILES	inhibition at 1 µM (MV4-11 cells)	IC50 at 72 h [1]	CETSA: thermal stability of ENL vs DMSO at elevated temperatures (ENL)	IC50 (NLuc-ENL YEATS)	IC50 at 8 days [2]	inhibition at 10 µM (MV4-11 cells; 10 μM)
CC(C)[C@H]1CCN1Cc1cc2cnc(NC(=O)c3ccc4nncn4c3)cc2[nH]1 [SR-C-107 (R), (R)-N-(2-((2-Isopropylazetidin-1-yl)methyl)-1H-pyrrolo[3,2-c]pyridin-6-yl)-[1,2,4]triazolo[4,3-a]pyridine-6-carboxamide]	~70%	> 64 µM	higher abundance of ENL	0.59 µM	1.25 ± 0.18 µM	–
CC(C)C1CCN1Cc1ccc(CNC(=O)c2ccc3nncn3c2)cc1 (centres unmarked) [inhibitor 13]	41%	> 64 µM	higher abundance of ENL	4.29 µM	6.06 µM	75%

From publication PMC11613437, “Prioritization of Eleven-Nineteen-Leukemia Inhibitors as Orally Available Drug Candidates for Acute Myeloid Leukemia” (Journal of Medicinal Chemistry, 2024)
